Results: patent publication US20250320213A1, “Nitrogen-Containing Heterocyclic Compounds” (Pfizer Inc., priority 2024, published 2025)

What follows are compounds tested against T1, STAT6 (Homo sapiens, UniProt P42226) (assay: STAT6 Reporter Luciferase Assay (IL-13 stimulated HaCaT keratinocyte NanoLuc reporter cells)). Details: IL-13 stimulated HaCaT STAT6 NanoLuc reporter cells; read-out: Reporter EC50.
T1 construct: stably transfected HaCaT keratinocyte cell line, which expresses NanoLuc luciferase reporter gene under the transcriptional control of the STAT6 responsive promoter; endogenous in cells; host or cells: HaCaT keratinocyte reporter cell line (stably transfected with a NanoLuc reporter)
T1 sequence (P42226 1-847): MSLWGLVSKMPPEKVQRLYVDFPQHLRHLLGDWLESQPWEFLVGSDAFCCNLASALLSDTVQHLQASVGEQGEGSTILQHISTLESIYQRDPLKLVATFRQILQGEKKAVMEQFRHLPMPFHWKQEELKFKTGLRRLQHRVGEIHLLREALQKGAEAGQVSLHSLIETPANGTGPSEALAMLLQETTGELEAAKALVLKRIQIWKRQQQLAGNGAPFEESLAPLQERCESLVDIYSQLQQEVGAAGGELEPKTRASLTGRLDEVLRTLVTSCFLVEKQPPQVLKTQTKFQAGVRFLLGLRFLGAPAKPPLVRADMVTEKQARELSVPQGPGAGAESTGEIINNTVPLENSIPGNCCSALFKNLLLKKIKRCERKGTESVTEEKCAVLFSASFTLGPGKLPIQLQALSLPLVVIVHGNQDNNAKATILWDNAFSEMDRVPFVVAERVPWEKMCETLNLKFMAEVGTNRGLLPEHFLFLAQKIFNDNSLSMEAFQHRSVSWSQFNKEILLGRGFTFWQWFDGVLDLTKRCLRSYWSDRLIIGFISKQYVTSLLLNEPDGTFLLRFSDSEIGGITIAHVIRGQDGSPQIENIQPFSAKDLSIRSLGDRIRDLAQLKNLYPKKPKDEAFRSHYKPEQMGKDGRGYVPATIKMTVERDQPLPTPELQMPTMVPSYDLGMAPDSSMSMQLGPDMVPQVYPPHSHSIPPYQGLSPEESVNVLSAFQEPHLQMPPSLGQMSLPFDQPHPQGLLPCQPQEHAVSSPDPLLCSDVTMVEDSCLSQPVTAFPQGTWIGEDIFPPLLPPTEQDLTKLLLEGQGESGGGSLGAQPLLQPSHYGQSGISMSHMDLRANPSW
Type: cell-based
How it was run: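 Luminescence from a NanoLuc reporter driven by the STAT6-responsive IL-13Ra2 promoter in HaCaT keratinocytes serves as the read-out. Compounds are given 2 h before a 4 h stimulation with 0.12 nM IL-13.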

Row | Compound | EC50
1 | CNC(=O)[C@@H]1CCCN1C(=O)c1ccc(N2CCc3c(c(C(=O)NCc4ccc(NC(=O)N(C)C)cc4)nn3C(C)C)C2)nc1 [Example 222, (S)-N-(4-(3,3-dimethylureido)benzyl)-1-isopropyl-5-(5-(2-(methylcarbamoyl)pyrrolidine-1-carbonyl)pyridin-2-yl)-4,5,6,7-tetrahydro-1H-pyrazolo[4,3-c]pyridine-3-carboxamide] | 1480 nM
2 | COC[C@H]1CCCN1C(=O)c1ccc(N2CCc3c(c(C(=O)NCc4ccc(NC(=O)N(C)C)cc4)nn3C(C)C)C2)nc1 [Example 225, (R)-N-(4-(3,3-dimethylureido)benzyl)-1-isopropyl-5-(5-(2-(methoxymethyl)pyrrolidine-1-carbonyl)pyridin-2-yl)-4,5,6,7-tetrahydro-1H-pyrazolo[4,3-c]pyridine-3-carboxamide] | 644 nM
3 | COC1(C)CN(C(=O)c2ccc(N3CCc4c(c(C(=O)NCc5ccc(NC(=O)N(C)C)cc5)nn4C(C)C)C3)nc2)C1 [Example 226, N-(4-(3,3-dimethylureido)benzyl)-1-isopropyl-5-(5-(3-methoxy-3-methylazetidine-1-carbonyl)pyridin-2-yl)-4,5,6,7-tetrahydro-1H-pyrazolo[4,3-c]pyridine-3-carboxamide] | 1930 nM
4 | CC(C)n1nc(C(=O)NCc2ccc(NC(=O)N(C)C)cc2)c2c1CCN(c1ccc(C(=O)N3C[C@@H]4C[C@H]3C(=O)N4)cn1)C2 [Example 227, N-(4-(3,3-dimethylureido)benzyl)-1-isopropyl-5-(5-((1S,4S)-6-oxo-2,5-diazabicyclo[2.2.1]heptane-2-carbonyl)pyridin-2-yl)-4,5,6,7-tetrahydro-1H-pyrazolo[4,3-c]pyridine-3-carboxamide] | > 6120 nM
5 | CCNC(=O)CN(C)C(=O)c1ccc(N2CCc3c(c(C(=O)NCc4ccc(NC(=O)N(C)C)cc4)nn3C(C)C)C2)nc1 [Example 229, N-(4-(3,3-dimethylureido)benzyl)-5-(5-((2-(ethylamino)-2-oxoethyl)(methyl)carbamoyl)pyridin-2-yl)-1-isopropyl-4,5,6,7-tetrahydro-1H-pyrazolo[4,3-c]pyridine-3-carboxamide] | 592 nM
6 | CC(C)n1nc(C(=O)NCc2ccc(NC(=O)N(C)C)cc2)c2c1CCN(c1ccc(C(=O)N3CCC(C)(C#N)C3)cn1)C2 (centres unmarked) [Example 240, 5-(5-(3-cyano-3-methylpyrrolidine-1-carbonyl)pyridin-2-yl)-N-(4-(3,3-dimethylureido)benzyl)-1-isopropyl-4,5,6,7-tetrahydro-1H-pyrazolo[4,3-c]pyridine-3-carboxamide] | 3630 nM
7 | CCOC1CN(C(=O)c2ccc(N3CCc4c(c(C(=O)NCc5ccc(NC(=O)N(C)C)cc5)nn4C(C)C)C3)nc2)C1 [Example 242, N-(4-(3,3-dimethylureido)benzyl)-5-(5-(3-ethoxyazetidine-1-carbonyl)pyridin-2-yl)-1-isopropyl-4,5,6,7-tetrahydro-1H-pyrazolo[4,3-c]pyridine-3-carboxamide] | 352 nM
8 | CC(C)n1nc(C(=O)NCc2ccc(NC(=O)N(C)C)cc2)c2c1CCN(c1ccc(C(=O)N3CC4CC(C3)C4O)cn1)C2 (centres unmarked) [Example 243, N-(4-(3,3-dimethylureido)benzyl)-5-(5-(6-hydroxy-3-azabicyclo[3.1.1]heptane-3-carbonyl)pyridin-2-yl)-1-isopropyl-4,5,6,7-tetrahydro-1H-pyrazolo[4,3-c]pyridine-3-carboxamide] | 1650 nM
9 | CC(C)n1nc(C(=O)NCc2ccc(NC(=O)N(C)C)cc2)c2c1CCN(c1ccc(C(=O)N3CC4(COCC(=O)N4)C3)cn1)C2 [Example 288, N-(4-(3,3-dimethylureido)benzyl)-1-isopropyl-5-(5-(6-oxo-8-oxa-2,5-diazaspiro[3.5]nonane-2-carbonyl)pyridin-2-yl)-4,5,6,7-tetrahydro-1H-pyrazolo[4,3-c]pyridine-3-carboxamide] | 1640 nM
10 | CC(C)n1nc(C(=O)NCc2ccc(NC(=O)N(C)C)cc2)c2c1CCN(c1ccc(C(=O)N3CC[C@H](C#N)C3)cn1)C2 [Example 291, (S)-5-(5-(3-cyanopyrrolidine-1-carbonyl)pyridin-2-yl)-N-(4-(3,3-dimethylureido)benzyl)-1-isopropyl-4,5,6,7-tetrahydro-1H-pyrazolo[4,3-c]pyridine-3-carboxamide] | 793 nM
11 | CC(=O)NC1CN(C(=O)c2ccc(N3CCc4c(c(C(=O)NCc5ccc(NC(=O)N(C)C)cc5)nn4C(C)C)C3)nc2)C1 [Example 292, 5-(5-(3-acetamidoazetidine-1-carbonyl)pyridin-2-yl)-N-(4-(3,3-dimethylureido)benzyl)-1-isopropyl-4,5,6,7-tetrahydro-1H-pyrazolo[4,3-c]pyridine-3-carboxamide] | 990 nM

Stronger by EC50, values ahead:

Row | EC50 | Compound
12 | 227 nM | CC(C)n1nc(C(=O)NCc2ccc(NC(=O)N(C)C)cc2)c2c1CCN(c1ccc(C(=O)N3CCCNC(=O)C3)cn1)C2 [Example 221, N-(4-(3,3-dimethylureido)benzyl)-1-isopropyl-5-(5-(3-oxo-1,4-diazepane-1-carbonyl)pyridin-2-yl)-4,5,6,7-tetrahydro-1H-pyrazolo[4,3-c]pyridine-3-carboxamide]
13 | 201 nM | CC(C)n1nc(C(=O)NCc2ccc(NC(=O)N(C)C)cc2)c2c1CCN(c1ccc(C(=O)N3CCNC(=O)C3)cn1)C2 [Example 223, N-(4-(3,3-dimethylureido)benzyl)-1-isopropyl-5-(5-(3-oxopiperazine-1-carbonyl)pyridin-2-yl)-4,5,6,7-tetrahydro-1H-pyrazolo[4,3-c]pyridine-3-carboxamide]
14 | 163 nM | CC(=O)N1CCN(C(=O)c2ccc(N3CCc4c(c(C(=O)NCc5ccc(NC(=O)N(C)C)cc5)nn4C(C)C)C3)nc2)CC1 [Example 224, 5-(5-(4-acetylpiperazine-1-carbonyl)pyridin-2-yl)-N-(4-(3,3-dimethylureido)benzyl)-1-isopropyl-4,5,6,7-tetrahydro-1H-pyrazolo[4,3-c]pyridine-3-carboxamide]
15 | 116 nM | CC(C)n1nc(C(=O)NCc2ccc(NC(=O)N(C)C)cc2)c2c1CCN(c1ccc(C(=O)N3CCC4(COC4)C3)cn1)C2 [Example 228, 5-(5-(2-oxa-6-azaspiro[3.4]octane-6-carbonyl)pyridin-2-yl)-N-(4-(3,3-dimethylureido)benzyl)-1-isopropyl-4,5,6,7-tetrahydro-1H-pyrazolo[4,3-c]pyridine-3-carboxamide]
16 | 236 nM | CC(C)n1nc(C(=O)NCc2ccc(NC(=O)N(C)C)cc2)c2c1CCN(c1ccc(C(=O)N3C[C@@H]4OCCO[C@@H]4C3)cn1)C2 [Example 239, N-(4-(3,3-dimethylureido)benzyl)-5-(5-((4aR,7aS)-hexahydro-5H-[1,4]dioxino[2,3-c]pyrrole-6-carbonyl)pyridin-2-yl)-1-isopropyl-4,5,6,7-tetrahydro-1H-pyrazolo[4,3-c]pyridine-3-carboxamide]
17 | 330 nM | CC(C)n1nc(C(=O)NCc2ccc(NC(=O)N(C)C)cc2)c2c1CCN(c1ccc(C(=O)N3C[C@@H]4CCO[C@@H]4C3)cn1)C2 [Example 241, N-(4-(3,3-dimethylureido)benzyl)-5-(5-((3aS,6aS)-hexahydro-2H-furo[2,3-c]pyrrole-5-carbonyl)pyridin-2-yl)-1-isopropyl-4,5,6,7-tetrahydro-1H-pyrazolo[4,3-c]pyridine-3-carboxamide]
18 | 196 nM | CC(C)n1nc(C(=O)NCc2ccc(NC(=O)N(C)C)cc2)c2c1CCN(c1ccc(C(=O)N3CC(C)(O)C3)cn1)C2 [Example 244, N-(4-(3,3-dimethylureido)benzyl)-5-(5-(3-hydroxy-3-methylazetidine-1-carbonyl)pyridin-2-yl)-1-isopropyl-4,5,6,7-tetrahydro-1H-pyrazolo[4,3-c]pyridine-3-carboxamide]
19 | 312 nM | CC(C)n1nc(C(=O)NCc2ccc(NC(=O)N(C)C)cc2)c2c1CCN(c1ccc(C(=O)N3C[C@H]4COC[C@H]4C3)cn1)C2 [Example 289, N-(4-(3,3-dimethylureido)benzyl)-5-(5-((3aR,6aS)-hexahydro-1H-furo[3,4-c]pyrrole-5-carbonyl)pyridin-2-yl)-1-isopropyl-4,5,6,7-tetrahydro-1H-pyrazolo[4,3-c]pyridine-3-carboxamide]
20 | 100 nM | CC(C)n1nc(C(=O)NCc2ccc(NC(=O)N(C)C)cc2)c2c1CCN(c1ccc(C(=O)N3CC(=O)N(C)[C@H](C)C3)cn1)C2 [Example 293, (R)-5-(5-(3,4-dimethyl-5-oxopiperazine-1-carbonyl)pyridin-2-yl)-N-(4-(3,3-dimethylureido)benzyl)-1-isopropyl-4,5,6,7-tetrahydro-1H-pyrazolo[4,3-c]pyridine-3-carboxamide]
